From US20180194967A1, “ANTIMICROBIAL PEPTIDE AMPHIPHILE COATINGS” (priority 2017, published 2018)
Where a SMILES comes first, the peptide text is derived from it. Bridges are numbered along the chain shown (N, C = ends). [ ]: non-standard residue; d: D form. The star is where a group is joined. d2Nal = N[C@H](Cc1ccc2ccccc2c1)C(=O)O; Palmitoyl = CCCCCCCCCCCCCCCC(=O)*

Test: Coating thickness by optical profilometry
Assay type: physicochemical
Conditions: submersion coating on PVC-coated glass slide
Method: For surface topology studies, PVC powder was purchased and dissolved in 3:2 cyclopentanone:tetrahydrofuran at a concentration of 10 mg/mL. PVC solution (50 μL) was used to spin-coat 1 cm diameter glass slides for 1 minute at 3,000 RPM. The PVC-coated slides were allowed to dry for 24 hours prior to submersion coating in 2 mL AMPA solutions. Coated products were removed from submersion and dried in 24-well plates under aseptic conditions for at least 24 hours prior to characterization. The coating was assessed via contact angle to evaluate surface hydrophilicity and optical profilometry to measure coating thickness. […] Electron microscopy of the AMPA coatings has shown no presence of micelles.

**Q.** With `CCCCCCCCCCCCCCCC(=O)NCCCC[C@H](NC(=O)[C@H]1CCCN1C(=O)[C@H](NC(=O)[C@@H]1CCCCNC(=O)C[C@H](NC(=O)[C@@H](NC(=O)[C@H](CCCNC(=N)N)NC(=O)[C@@H](NC(=O)[C@H](CCCNC(=N)N)NC(=O)[C@@H](NC(=O)[C@H](CCCNC(=N)N)NC(=O)[C@@H](N)Cc2ccccc2)[C@@H](C)CC)C(C)C)C(C)C)C(=O)N[C@@H](CCCNC(=N)N)C(=O)N[C@@H](CCCNC(=N)N)C(=O)N[C@H](Cc2ccc3ccccc3c2)C(=O)N[C@@H](Cc2ccccc2)C(=O)N[C@@H](Cc2c[nH]c3ccccc23)C(=O)N[C@@H](CCCNC(=N)N)C(=O)N1)C(C)C)C(N)=O` [AB01-KPalm, FRIRVRV[DRR-dNal(2′)-FWRK]dV-Dp [SEQ. ID. NO. 1]-K(Palm)] (H-FRIRVRVDRR[d2Nal]FWRK[dV][dP]K(Palmitoyl)-NH2; lactam 8-15; N-terminus and C-terminus assumed) as the molecule, how does the coating thickness read?
**A.** approximately 30 nm
